Test results reported in ChEMBL document CHEMBL4387786, “Mallopenins A-E, Antibacterial Phenolic Derivatives from the Fruits of Mallotus philippensis” (2019).
Converted amounts (≈) assume the structure as drawn.

Assays:
Bacillus cereus = test: Antibacterial activity against Bacillus cereus by CLSI guideline based broth microdilution method; assay type: functional
Escherichia coli = test: Antibacterial activity against Escherichia coli by CLSI guideline based broth microdilution method; assay type: functional
Micrococcus luteus = test: Antibacterial activity against Micrococcus luteus by CLSI guideline based broth microdilution method; assay type: functional
Pseudomonas aeruginosa = test: Antibacterial activity against Pseudomonas aeruginosa by CLSI guideline based broth microdilution method; assay type: functional
[1] = tested on: Staphylococcus epidermidis; test: Antibacterial activity against Staphylococcus epidermidis by CLSI guideline based broth microdilution method; assay type: functional
Staphylococcus aureus = test: Antibacterial activity against Staphylococcus aureus by CLSI guideline based broth microdilution method; assay type: functional
Streptococcus mutans = test: Antibacterial activity against Streptococcus mutans by CLSI guideline based broth microdilution method; assay type: functional
Shigella flexneri = test: Antibacterial activity against Shigella flexneri by CLSI guideline based broth microdilution method; assay type: functional
Salmonella typhimurium = test: Antibacterial activity against Salmonella typhimurium by CLSI guideline based broth microdilution method; assay type: functional, Salmonella enterica subsp. enterica serovar Typhimurium

Compound	MIC (Bacillus cereus)	MIC (Escherichia coli)	MIC (Micrococcus luteus)	MIC (Pseudomonas aeruginosa)	MIC [1]	MIC (Staphylococcus aureus)	MIC (Streptococcus mutans)	MIC (Shigella flexneri)	MIC (Salmonella typhimurium; Salmonella enterica)	MIC (Salmonella typhimurium; Salmonella enterica subsp. enterica serovar Typhimurium)
CC(=O)c1c(O)c(C)c(O)c(Cc2c(O)c3c(c(C(=O)/C=C/c4ccc(O)cc4)c2O)OC(C)(C)C=C3)c1O	3.8 µM (≈ 2.02 µg/mL)	7.5 µM (≈ 3.99 µg/mL)	30.1 µM (≈ 16 µg/mL)	> 100 µM	> 100 µM	15 µM (≈ 7.99 µg/mL)	3.8 µM (≈ 2.02 µg/mL)	> 100 µM	> 100 µM	
CC(=O)c1c(O)c(CC=C(C)C)c2c3c1OC1(C)CCC(C3C1)C(C)(C)O2 (racemic)	> 100 µM	> 100 µM	> 100 µM	> 100 µM	> 100 µM	> 100 µM	> 100 µM	> 100 µM	> 100 µM	
GENTAMICIN		0.5 µM		1 µM				1 µM		1 µM
CC1(C)C=Cc2c(O)c3c(c(CC(=O)O)c2O1)O[C@H](c1ccccc1)CC3=O	> 100 µM	> 100 µM	> 100 µM	> 100 µM	> 100 µM	> 100 µM	> 100 µM	> 100 µM	> 100 µM	
COCc1c2c(c(O)c3c1O[C@H](c1ccccc1)CC3=O)C=CC(C)(C)O2	> 100 µM	> 100 µM	> 100 µM	> 100 µM	> 100 µM	> 100 µM	> 100 µM	> 100 µM	> 100 µM	
CC(=O)c1c(O)c(C)c(O)c(Cc2c(O)c3c(c(C(=O)/C=C/c4ccccc4)c2O)OC(C)(C)C=C3)c1O [ROTTLERIN]	15.5 µM (≈ 8.01 µg/mL)	15.5 µM (≈ 8.01 µg/mL)	15.5 µM (≈ 8.01 µg/mL)	> 100 µM	> 100 µM	15.5 µM (≈ 8.01 µg/mL)	15.5 µM (≈ 8.01 µg/mL)	> 100 µM	> 100 µM	
CN[C@H](CC(C)C)C(=O)N[C@H]1C(=O)N[C@@H](CC(N)=O)C(=O)N[C@H]2C(=O)N[C@H]3C(=O)N[C@H](C(=O)N[C@H](C(=O)O)c4cc(O)cc(O)c4-c4cc3ccc4O)[C@H](O)c3ccc(c(Cl)c3)Oc3cc2cc(c3O[C@@H]2O[C@H](CO)[C@@H](O)[C@H](O)[C@H]2O[C@H]2C[C@](C)(N)[C@H](O)[C@H](C)O2)Oc2ccc(cc2Cl)[C@H]1O [VANCOMYCIN]	0.1 µM (≈ 0.145 µg/mL)		0.2 µM (≈ 0.29 µg/mL)		0.2 µM (≈ 0.29 µg/mL)	0.2 µM (≈ 0.29 µg/mL)	0.2 µM (≈ 0.29 µg/mL)			
CC(C)=CCc1c(O)c(C(=O)/C=C/c2ccccc2)c2c(c1O)[C@H]1[C@@H]3[C@@H](CC[C@]3(C)O2)C1(C)C	> 100 µM	> 100 µM	> 100 µM	> 100 µM	> 100 µM	> 100 µM	> 100 µM	> 100 µM	> 100 µM	
CC(=O)c1c(O)c(C)c(O)c(Cc2c(O)c(CC=C(C)C)c(O)c3c2OC(c2ccccc2)CC3=O)c1O (centres undefined)	30.9 µM (≈ 16 µg/mL)	30.9 µM (≈ 16 µg/mL)	30.9 µM (≈ 16 µg/mL)	> 100 µM	> 100 µM	61.8 µM (≈ 32 µg/mL)	30.9 µM (≈ 16 µg/mL)	> 100 µM	> 100 µM	
CC(=O)c1c(O)c(C)c(O)c(Cc2c3c(c(O)c4c2OC(c2ccccc2)CC4=O)C=CC(C)(C)O3)c1O (centres undefined)	> 100 µM	> 100 µM	> 100 µM	> 100 µM	> 100 µM	> 100 µM	> 100 µM	> 100 µM	> 100 µM	
CC(C)=CCC/C(C)=C/Cc1c(O)c2c(c(C(=O)/C=C/c3ccccc3)c1O)OC(C)(C)C=C2	> 100 µM	> 100 µM	> 100 µM	> 100 µM	> 100 µM	> 100 µM	> 100 µM	> 100 µM	> 100 µM	
CC(=O)c1c(O)c(C)c(O)c(Cc2c3c(c(O)c4c2OC(c2ccc(O)cc2)CC4=O)C=CC(C)(C)O3)c1O (centres undefined)	30.1 µM (≈ 16 µg/mL)	> 100 µM	> 100 µM	> 100 µM	> 100 µM	> 100 µM	> 100 µM	> 100 µM	> 100 µM	
